# Measured values from BindingDB's records for doi:10.1016/S0960-894X(01)00722-3 (Janssen-Cilag, 2001).
# What was measured:
# [1] = target: T1, 5-hydroxytryptamine receptor 2A (Homo sapiens, UniProt P28223); experiment: (§1) Binding affinity for human cloned 5-HT2A receptor expressed in L929 cells using [125I]R91150 as radioligand
# [2] = target: Histamine H1 receptor (Homo sapiens, UniProt P35367); experiment: ChEBML_84541
# Text: Binding affinity at human cloned Histamine H1 receptor expressed in CHO cells by [3H]pyrilamine displacement.
# [3] = target: T2, 5-hydroxytryptamine receptor 2C (Homo sapiens, UniProt P28335); experiment: ChEBML_2740
# T2 sequence (P28335 whole entry): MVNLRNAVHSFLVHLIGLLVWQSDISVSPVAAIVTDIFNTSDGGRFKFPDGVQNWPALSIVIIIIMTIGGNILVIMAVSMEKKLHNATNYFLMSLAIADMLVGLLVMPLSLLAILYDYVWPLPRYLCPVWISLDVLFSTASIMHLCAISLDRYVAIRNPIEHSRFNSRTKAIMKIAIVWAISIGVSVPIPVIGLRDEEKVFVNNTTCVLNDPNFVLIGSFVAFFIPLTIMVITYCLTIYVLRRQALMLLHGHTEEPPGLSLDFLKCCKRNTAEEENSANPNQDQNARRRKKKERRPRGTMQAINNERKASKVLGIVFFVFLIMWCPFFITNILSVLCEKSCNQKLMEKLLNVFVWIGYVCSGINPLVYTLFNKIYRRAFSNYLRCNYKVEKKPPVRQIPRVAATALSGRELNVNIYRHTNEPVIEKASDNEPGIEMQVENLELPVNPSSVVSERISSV
# Text: Binding affinity at human cloned 5-hydroxytryptamine 2C receptor expressed in CHO cells by [3H]mesulergine displacement.
# [4] = target: T1, 5-hydroxytryptamine receptor 2A; experiment: ChEBML_2507; text: as §1
# [5] = target: T3, D(4) dopamine receptor (Homo sapiens, UniProt P21917); experiment: ChEBML_60841
# T3 sequence (P21917 whole entry): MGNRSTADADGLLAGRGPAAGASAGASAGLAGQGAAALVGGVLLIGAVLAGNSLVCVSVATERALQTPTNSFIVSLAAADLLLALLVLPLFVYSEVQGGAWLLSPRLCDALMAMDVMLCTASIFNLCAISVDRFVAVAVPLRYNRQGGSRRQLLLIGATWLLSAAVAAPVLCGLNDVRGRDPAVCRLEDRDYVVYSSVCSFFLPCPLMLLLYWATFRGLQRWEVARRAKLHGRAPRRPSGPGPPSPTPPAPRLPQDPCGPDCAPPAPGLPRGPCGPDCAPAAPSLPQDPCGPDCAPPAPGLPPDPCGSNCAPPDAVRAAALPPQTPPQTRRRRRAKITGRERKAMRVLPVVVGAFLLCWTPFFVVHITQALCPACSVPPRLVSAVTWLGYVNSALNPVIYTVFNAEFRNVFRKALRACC
# Text: Binding affinity for human cloned Dopamine receptor D4
# [6] = target: T4, Alpha-2A adrenergic receptor (Homo sapiens, UniProt P08913); experiment: ChEBML_33198
# T4 sequence (P08913 whole entry): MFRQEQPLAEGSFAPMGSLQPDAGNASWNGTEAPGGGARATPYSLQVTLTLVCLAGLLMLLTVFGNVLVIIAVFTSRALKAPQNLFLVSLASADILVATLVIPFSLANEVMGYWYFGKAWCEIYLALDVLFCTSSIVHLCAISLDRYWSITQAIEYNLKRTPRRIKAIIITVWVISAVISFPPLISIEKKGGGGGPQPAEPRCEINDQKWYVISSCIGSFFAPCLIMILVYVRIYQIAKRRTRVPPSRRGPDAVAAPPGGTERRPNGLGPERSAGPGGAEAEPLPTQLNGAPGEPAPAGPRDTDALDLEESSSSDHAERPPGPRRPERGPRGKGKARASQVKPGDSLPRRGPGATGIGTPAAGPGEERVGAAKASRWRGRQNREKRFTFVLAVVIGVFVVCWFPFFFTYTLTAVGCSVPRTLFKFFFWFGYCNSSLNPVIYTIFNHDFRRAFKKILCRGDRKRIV
# Text: Binding affinity for human cloned Alpha-2A adrenergic receptor
# [7] = target: T5, Alpha-2C adrenergic receptor (Homo sapiens, UniProt P18825); experiment: ChEBML_33661
# T5 sequence (P18825 whole entry): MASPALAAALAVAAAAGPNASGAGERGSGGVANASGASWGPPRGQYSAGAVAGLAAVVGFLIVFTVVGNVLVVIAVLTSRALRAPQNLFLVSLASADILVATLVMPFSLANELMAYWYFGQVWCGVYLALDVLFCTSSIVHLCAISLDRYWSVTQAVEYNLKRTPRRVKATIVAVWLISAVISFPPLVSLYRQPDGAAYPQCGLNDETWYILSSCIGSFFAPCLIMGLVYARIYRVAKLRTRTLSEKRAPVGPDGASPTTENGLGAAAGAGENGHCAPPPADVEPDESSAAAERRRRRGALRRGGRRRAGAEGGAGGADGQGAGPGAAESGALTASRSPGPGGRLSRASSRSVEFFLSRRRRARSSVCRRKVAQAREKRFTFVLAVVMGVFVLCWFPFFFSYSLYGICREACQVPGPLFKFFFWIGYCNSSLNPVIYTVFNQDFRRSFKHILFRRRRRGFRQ
# Text: Binding affinity for human cloned Alpha-2C adrenergic receptor
# [8] = target: D(2) dopamine receptor (Homo sapiens, UniProt P14416); experiment: ChEBML_61646
# Sequence of D(2) dopamine receptor (Homo sapiens, UniProt P14416) (P14416 whole entry): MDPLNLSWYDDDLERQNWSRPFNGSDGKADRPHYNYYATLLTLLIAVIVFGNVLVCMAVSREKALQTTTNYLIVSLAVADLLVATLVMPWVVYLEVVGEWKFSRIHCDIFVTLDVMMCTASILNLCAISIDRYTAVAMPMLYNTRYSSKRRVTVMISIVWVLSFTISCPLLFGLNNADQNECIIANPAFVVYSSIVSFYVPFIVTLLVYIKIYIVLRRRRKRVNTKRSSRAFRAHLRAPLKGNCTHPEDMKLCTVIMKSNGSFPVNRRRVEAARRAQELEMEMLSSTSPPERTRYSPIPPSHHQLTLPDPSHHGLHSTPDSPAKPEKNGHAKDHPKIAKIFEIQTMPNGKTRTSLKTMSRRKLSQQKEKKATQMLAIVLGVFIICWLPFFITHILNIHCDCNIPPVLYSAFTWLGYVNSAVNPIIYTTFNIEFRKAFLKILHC
# Text: Binding affinity for human cloned Dopamine receptor D2L
# [9] = target: T6, Alpha-1A adrenergic receptor (Homo sapiens, UniProt P35348); experiment: ChEBML_33869
# T6 sequence (P35348 whole entry): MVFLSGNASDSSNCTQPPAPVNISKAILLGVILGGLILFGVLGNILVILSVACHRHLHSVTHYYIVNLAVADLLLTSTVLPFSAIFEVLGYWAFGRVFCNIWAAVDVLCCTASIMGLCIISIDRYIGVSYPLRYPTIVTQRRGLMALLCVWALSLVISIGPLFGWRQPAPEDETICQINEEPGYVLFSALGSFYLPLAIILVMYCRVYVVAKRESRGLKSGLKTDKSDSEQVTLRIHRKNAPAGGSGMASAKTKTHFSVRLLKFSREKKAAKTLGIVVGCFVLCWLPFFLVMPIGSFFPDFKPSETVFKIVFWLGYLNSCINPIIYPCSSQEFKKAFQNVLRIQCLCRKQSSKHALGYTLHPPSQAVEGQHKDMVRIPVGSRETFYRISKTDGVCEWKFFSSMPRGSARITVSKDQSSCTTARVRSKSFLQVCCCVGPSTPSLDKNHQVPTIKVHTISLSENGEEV
# Text: Binding affinity for human cloned Alpha-1A adrenergic receptor
# [10] = target: 5-hydroxytryptamine receptor 1D (Homo sapiens, UniProt P28221); experiment: ChEBML_1745
# Sequence of 5-hydroxytryptamine receptor 1D (P28221 whole entry): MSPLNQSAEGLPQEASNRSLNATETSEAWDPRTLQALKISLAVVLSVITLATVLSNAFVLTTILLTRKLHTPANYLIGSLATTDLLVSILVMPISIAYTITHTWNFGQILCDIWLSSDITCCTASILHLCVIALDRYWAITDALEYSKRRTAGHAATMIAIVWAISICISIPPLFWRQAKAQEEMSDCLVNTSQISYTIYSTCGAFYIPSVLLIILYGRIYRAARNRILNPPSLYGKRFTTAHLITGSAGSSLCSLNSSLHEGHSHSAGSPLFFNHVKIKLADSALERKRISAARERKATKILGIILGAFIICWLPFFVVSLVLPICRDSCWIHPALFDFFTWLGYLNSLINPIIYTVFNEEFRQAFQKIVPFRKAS
# Text: Binding affinity for human cloned 5-hydroxytryptamine 1D receptor
# [11] = target: T7, 5-hydroxytryptamine receptor 1A (Homo sapiens, UniProt P08908); experiment: ChEBML_1016
# T7 sequence (P08908 whole entry): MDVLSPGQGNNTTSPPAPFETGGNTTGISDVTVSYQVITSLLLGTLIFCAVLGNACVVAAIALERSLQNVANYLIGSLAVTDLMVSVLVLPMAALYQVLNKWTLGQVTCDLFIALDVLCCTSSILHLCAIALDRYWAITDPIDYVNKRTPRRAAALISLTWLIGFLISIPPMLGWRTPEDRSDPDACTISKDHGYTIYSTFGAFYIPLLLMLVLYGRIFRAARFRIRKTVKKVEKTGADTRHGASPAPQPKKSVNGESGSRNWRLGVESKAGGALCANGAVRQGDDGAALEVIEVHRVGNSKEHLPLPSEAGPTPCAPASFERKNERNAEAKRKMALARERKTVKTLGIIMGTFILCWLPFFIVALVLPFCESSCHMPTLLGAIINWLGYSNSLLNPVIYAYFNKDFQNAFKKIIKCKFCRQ
# Text: Binding affinity for human cloned 5-hydroxytryptamine 1A receptor
# [12] = target: D(3) dopamine receptor (Homo sapiens, UniProt P35462); experiment: ChEBML_62451
# Sequence of D(3) dopamine receptor (P35462 as listed by the source): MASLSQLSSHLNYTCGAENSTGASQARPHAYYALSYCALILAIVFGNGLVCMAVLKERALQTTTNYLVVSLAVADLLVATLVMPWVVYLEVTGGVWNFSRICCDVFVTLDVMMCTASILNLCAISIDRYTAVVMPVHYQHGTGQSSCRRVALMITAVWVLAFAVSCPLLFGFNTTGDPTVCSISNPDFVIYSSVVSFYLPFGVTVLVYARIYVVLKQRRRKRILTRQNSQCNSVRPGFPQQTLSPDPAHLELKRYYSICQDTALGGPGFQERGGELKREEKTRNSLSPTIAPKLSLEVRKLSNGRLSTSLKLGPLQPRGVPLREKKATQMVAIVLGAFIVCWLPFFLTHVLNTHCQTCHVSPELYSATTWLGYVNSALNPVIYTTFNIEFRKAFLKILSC
# Text: Binding affinity for human cloned Dopamine receptor D3
# [13] = target: D(2) dopamine receptor (Rattus norvegicus, UniProt P61169); experiment: ChEBML_60811
# Sequence of D(2) dopamine receptor (Rattus norvegicus, UniProt P61169) (P61169 whole entry): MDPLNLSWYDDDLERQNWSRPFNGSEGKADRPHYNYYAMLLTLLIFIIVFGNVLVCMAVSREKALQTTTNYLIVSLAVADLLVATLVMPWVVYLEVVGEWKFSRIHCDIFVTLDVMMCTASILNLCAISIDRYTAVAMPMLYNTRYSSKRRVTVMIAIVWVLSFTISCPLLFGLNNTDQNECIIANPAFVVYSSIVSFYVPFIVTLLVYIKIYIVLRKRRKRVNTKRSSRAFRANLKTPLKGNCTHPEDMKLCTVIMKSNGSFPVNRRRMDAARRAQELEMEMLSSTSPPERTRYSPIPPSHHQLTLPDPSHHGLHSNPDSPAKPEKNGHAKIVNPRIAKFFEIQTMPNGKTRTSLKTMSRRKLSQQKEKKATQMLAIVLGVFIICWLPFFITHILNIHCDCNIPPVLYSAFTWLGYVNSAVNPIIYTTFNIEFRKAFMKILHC
# Text: Binding affinity for rat Dopamine receptor D2
# T1 sequence (P28223 whole entry): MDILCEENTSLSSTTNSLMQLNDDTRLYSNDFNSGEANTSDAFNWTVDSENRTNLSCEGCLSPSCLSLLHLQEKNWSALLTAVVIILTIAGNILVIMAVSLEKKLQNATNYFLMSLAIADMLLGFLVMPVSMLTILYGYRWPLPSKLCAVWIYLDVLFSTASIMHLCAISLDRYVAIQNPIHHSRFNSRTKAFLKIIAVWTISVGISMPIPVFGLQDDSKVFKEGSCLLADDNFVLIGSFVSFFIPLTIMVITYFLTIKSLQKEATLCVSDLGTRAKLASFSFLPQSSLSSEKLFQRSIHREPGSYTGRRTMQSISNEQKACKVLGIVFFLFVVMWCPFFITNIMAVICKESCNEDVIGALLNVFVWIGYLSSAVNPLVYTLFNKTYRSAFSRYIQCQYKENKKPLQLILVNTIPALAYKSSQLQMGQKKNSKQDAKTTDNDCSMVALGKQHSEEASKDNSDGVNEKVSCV
# Sequence of Histamine H1 receptor (P35367 whole entry): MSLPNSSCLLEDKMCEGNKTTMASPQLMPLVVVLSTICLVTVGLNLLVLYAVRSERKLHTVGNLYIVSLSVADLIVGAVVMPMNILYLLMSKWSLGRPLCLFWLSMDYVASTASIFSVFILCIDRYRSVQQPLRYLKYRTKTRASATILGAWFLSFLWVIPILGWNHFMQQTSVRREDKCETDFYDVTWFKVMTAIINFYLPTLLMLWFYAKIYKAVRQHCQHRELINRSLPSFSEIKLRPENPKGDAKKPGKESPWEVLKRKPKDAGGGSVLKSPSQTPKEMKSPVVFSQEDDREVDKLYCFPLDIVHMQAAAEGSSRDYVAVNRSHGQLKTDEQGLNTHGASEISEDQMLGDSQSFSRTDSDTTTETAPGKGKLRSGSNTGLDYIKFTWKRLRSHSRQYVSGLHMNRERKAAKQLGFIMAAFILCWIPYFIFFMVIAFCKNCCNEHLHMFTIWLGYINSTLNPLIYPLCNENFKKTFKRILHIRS
SMILES,IC50 [1] [nM],IC50 [2] [nM],IC50 [3] [nM],IC50 [4] [nM],IC50 [5] [nM],IC50 [6] [nM],IC50 [7] [nM],IC50 [8] [nM],IC50 [9] [nM],IC50 [10] [nM],IC50 [11] [nM],IC50 [12] [nM],IC50 [13] [nM]
CN(C)CC1CC2c3cccc(Cl)c3Cc3ccccc3N2O1 (configuration not stated),–,< 1000,< 1000,< 1000,–,–,–,–,–,–,–,–,–
Cc1ccc2c(c1)Cc1ccccc1N1OC(CN(C)C)CC21 (configuration not stated),–,16,6.3,–,–,–,–,–,–,–,–,–,–
CN(C)CC1CC2c3cc(F)ccc3Cc3ccc(F)cc3N2O1 (configuration not stated),–,17,6.2,–,< 1000,< 1000,< 1000,447,162,< 1000,< 1000,< 1000,–
CN(C)CC1CC2c3c(cccc3C(F)(F)F)Cc3ccccc3N2O1 (configuration not stated),–,48,7.6,68,–,–,–,–,–,–,–,–,–
CN(C)CC1CC2c3c(F)cccc3Cc3ccccc3N2O1 (configuration not stated),–,< 1000,< 1000,< 1000,–,–,–,–,–,–,–,–,–
CN(C)CC1CC2c3ccccc3Cc3cccc(Cl)c3N2O1 (configuration not stated),–,15,10,32,–,–,–,–,–,–,–,–,–
CN(C)CC1CC2c3cc(C(F)(F)F)ccc3Cc3ccccc3N2O1 (configuration not stated),–,< 1000,< 1000,< 1000,–,–,–,–,–,–,–,–,–
CN(C)CC1CC2c3cccc(C(F)(F)F)c3Cc3ccccc3N2O1 (configuration not stated),–,37,437,1000,–,–,–,–,–,–,–,–,–

# Continued, values first:
IC50 [1] [nM],IC50 [2] [nM],IC50 [3] [nM],IC50 [4] [nM],IC50 [5] [nM],IC50 [6] [nM],IC50 [7] [nM],IC50 [8] [nM],IC50 [9] [nM],IC50 [10] [nM],IC50 [11] [nM],IC50 [12] [nM],IC50 [13] [nM],SMILES
22,7.9,11,–,–,–,–,–,–,–,–,–,–,CN(C)CC1CC2c3ccccc3Cc3ccc(-c4ccccc4)cc3N2O1 (configuration not stated)
–,12,30,48,–,–,–,–,–,–,–,–,–,Cc1cccc2c1C1CC(CN(C)C)ON1c1ccccc1C2 (configuration not stated)
–,1.3,4.7,6.9,–,–,–,–,–,–,–,–,–,CN(C)CC1CC2c3ccccc3Cc3cc(F)ccc3N2O1 (configuration not stated)
–,2.6,–,–,14,501,1170,36,45,302,1590,14,< 1000,CN(C)CC1CC2c3ccccc3Cc3ccc(F)cc3N2O1 (configuration not stated)
–,1.7,5,24,–,–,–,–,–,–,–,–,–,CN(C)CC1CC2c3ccccc3Cc3c(F)cccc3N2O1 (configuration not stated)
–,3.8,11,54,–,–,–,–,–,–,–,–,–,CN(C)CC1CC2c3cc(F)ccc3Cc3ccccc3N2O1 (configuration not stated)
–,2.3,12,–,–,–,–,–,–,–,–,–,–,CN(C)CC1CC2c3cccc(F)c3Cc3ccccc3N2O1 (configuration not stated)
–,6,3.9,91,–,–,–,–,–,–,–,–,–,Cc1cccc2c1Cc1ccccc1C1CC(CN(C)C)ON21 (configuration not stated)
–,14,19,302,–,–,–,–,–,–,–,–,–,COc1ccc2c(c1)C1CC(CN(C)C)ON1c1ccccc1C2 (configuration not stated)
–,5.9,3,3.1,< 1000,< 1000,< 1000,55,43,< 1000,< 1000,< 1000,< 1000,Cc1ccc2c(c1)N1OC(CN(C)C)CC1c1ccccc1C2 (configuration not stated)
–,2.3,1,3.5,2.6,479,871,8.7,14,135,200,0.55,8.9,CN(C)CC1CC2c3ccccc3Cc3ccc(Cl)cc3N2O1 (configuration not stated)
